# How the values were obtained:
# cereblon = cereblon (Homo sapiens, UniProt Q96SW2); conditions: pomalidomide 10 μM
# VCaP tumor xenograft [1] = conditions: cited from earlier work
# prostate = assay: 10-day prostate involution study in rats; assay type: in vivo, rat; conditions: enzalutamide 100 mg/kg/day orally, 10 days, intact rats
# Experimental: Enzalutamide and Compound A were orally administered once daily at the indicated doses. After 10 days of treatment, the prostate tissue from each rat was isolated and weighed. Treatment groups (n=5 per group) were compared by one way ANOVA. Note: ns: not significant, *: p<0.05, **: p≤0.01.
# To substantiate the on-target mechanism of Compound A, a prostate involution study was conducted in rats. […] Twenty-four hours after the last dose, the rats were euthanized, and the prostate organs were isolated and weighed.
# PSA = assay: intracellular PSA ELISA in VCaP cells; assay type: cell-based; conditions: Homo sapiens, CSS + 0.1 nM R1881, 48 hours, read-out: IC50, inhibiting PSA expression
# Experimental: Intracellular prostate specific antigen (PSA) levels were determined using a PSA enzyme-linked immunosorbent assay (ELISA). […] The cell proliferation was determined using the CellTiter-Glo® assay. […] The CaspaseGlo® assay was carried out to measure the level of apoptosis in cells.
# To evaluate the pharmacological effect of Compound A in vitro, PSA, cell proliferation, and apoptosis assays were carried out in VCaP cells.
# VCaP tumor xenograft [2] = assay: VCaP tumor xenograft study in intact (non-castrated) mice; assay type: in vivo, mouse; conditions: enzalutamide 20 mg/kg orally QD for 21 days
# Excerpt: To mimic higher androgen levels found in an incomplete testosterone suppression environment, intact (non-castrated) mice were employed for a VCaP tumor xenograft study.
# Sequence of cereblon (Q96SW2 whole entry): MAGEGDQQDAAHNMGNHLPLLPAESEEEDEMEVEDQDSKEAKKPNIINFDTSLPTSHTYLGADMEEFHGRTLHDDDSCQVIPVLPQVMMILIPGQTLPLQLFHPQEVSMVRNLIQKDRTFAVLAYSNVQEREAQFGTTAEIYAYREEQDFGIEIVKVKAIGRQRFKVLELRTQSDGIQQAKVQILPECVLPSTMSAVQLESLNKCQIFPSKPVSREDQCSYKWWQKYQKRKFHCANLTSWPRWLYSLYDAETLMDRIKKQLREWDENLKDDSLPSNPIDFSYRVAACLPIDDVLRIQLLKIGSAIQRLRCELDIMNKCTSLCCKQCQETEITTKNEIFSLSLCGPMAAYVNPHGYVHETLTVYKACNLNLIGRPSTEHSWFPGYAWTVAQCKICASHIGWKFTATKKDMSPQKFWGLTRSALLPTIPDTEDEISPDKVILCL
effect on Compound A mediated AR degradation (cereblon),IC50 (PSA) [nM],Structure (SMILES),activity in the intact VCaP setting (published data) (VCaP tumor xenograft [1]),Mean (±SEM) prostate weights (prostate) [mg],tumor growth inhibition (TGI) (VCaP tumor xenograft [2]) [%]
blocked Compound A mediated degradation,,Nc1cccc2c1C(=O)N(C1CCC(=O)NC1=O)C2=O (centres unmarked) [pomalidomide],,,
,175,"CNC(=O)c1ccc(N2C(=S)N(c3ccc(C#N)c(C(F)(F)F)c3)C(=O)C2(C)C)cc1F [enzalutamide, reference compound]","very modest activity, or no activity at all",818 ± 170,27

# — patent US20240180900A1, “COMPOUNDS AND METHODS FOR THE TARGETED DEGRADATION OF ANDROGEN RECEPTOR” (Arvinas Operations, Inc., priority 2022, published 2024)
